Source: patent publication US20130225629A1, “TARGETING PI3K/MTOR SIGNALLING AND NEUTROPHIL RECRUITMENT FOR TREATMENT OF ENTERITIS” (THE UNIVERSITY OF NORTH CAROLINA AT CHAPEL HILL, priority 2012, published 2013)

How the values were obtained:
[1] = test system: C. jejuni; test: Colonic crypt abscess count in C. jejuni infected mice; type: in vivo; conditions: AS252424-treated II10−/− mice vs vehicle
Description: All animal protocols were approved by the Institutional Animal Care and Use Committee of the University of North Carolina at Chapel Hill (Chapel Hill, N.C., United States of America). Germ-free 8-12 week-old II10^−/−; NF-κBEGFP (129/SvEv; C57BL/6 mixed background), II10^−/− and II10^−/−; Rag2^−/− mice (129/SvEv) were transferred from germ-free isolators and immediately gavaged with a single dose of 10^9 C. jejuni cfu/mouse (strain 81-176 (Korlath et al., 1985)) and sacrificed after up to 14 days as described previously (Sun et al., 2012). Specific pathogen free (SPF) housed Wt, II10^−/− and Pi3kγ^−/− (Sasaki et al., 2000) mice all on a 129/SvEv background were gavaged 10^9 C. jejuni cfu/mouse one day after 7 day treatment with antibiotics cocktail (streptomycin 2 g/L, gentamycin 0.5 g/L, bacteriocin 1 g/L and ciprofloxacin 0.125 g/L) (Sun et al., 2012). […] Histological images were acquired using a DP71 camera and DP Controller 3.1.1.276 (Olympus, Center Valley, Pa., United States of America), and intestinal inflammation was scored on a scale of 0 to 4 as described before (Lippert et al., 2009; Sun et al., 2012). Neutrophils in colonic tissues were identified based on morphological features using H&E stained sections and counted in 5 fields of view/mouse using a microscope. Data were expressed as average counts/mouse.

[2] = test system: C. jejuni; test: C. jejuni induced colitis, histological intestinal inflammation score; type: in vivo, mice; conditions: AS252424 10 mg/kg i.p. daily, 6 days, vs vehicle
Description: All animal protocols were approved by the Institutional Animal Care and Use Committee of the University of North Carolina at Chapel Hill (Chapel Hill, N.C., United States of America). Germ-free 8 to 12 week old II10^−/−; NF-κBEGFP (129/SvEv; C57BL/6 mixed background) mice were transferred from germ-free isolators and immediately gavaged with 10^9 C. jejuni cfu/mouse (strain 81-176 (Korlath et al., 1985)). Mice were then housed under Specific Pathogen-Free (SPF) conditions and sacrificed at 5 or 12 days. […] Intestinal inflammation was scored by evaluating the degree of lamina propria immune cell infiltration, goblet cell depletion, architectural distortion, as well as crypt hyperplasia, ulceration, and abscesses using a score from 0-4. […] Cecal and colonic inflammation induced by S. typhimurium was evaluated using a score from 0-13 as described. […]
All animal protocols were approved by the Institutional Animal Care and Use Committee of the University of North Carolina at Chapel Hill (Chapel Hill, N.C., United States of America). […] Histological images were acquired using a DP71 camera and DP Controller 3.1.1.276 (Olympus, Center Valley, Pa., United States of America), and intestinal inflammation was scored on a scale of 0 to 4 as described before (Lippert et al., 2009; Sun et al., 2012). […]

O=C1NC(=O)/C(=C/c2ccc(-c3ccc(F)cc3O)o2)S1 [AS252424]
reduction of C. jejuni-induced crypt abscesses [1]: 95%
C. jejuni-induced colitis [2]: reduced
